Where “and” joins values, the source holds several entries; their conditions need not be identical. Equal entries are not always repeated.
How the values were obtained:
murine PPARα = target: T1, murine PPARα (Mus musculus, UniProt P23204); assay: PPAR-GAL4 transient transfection transactivation assay (SPAP reporter) in CV-1 cells, PPARα; assay type: cell-based; conditions: for EC50: CV-1 cells, GAL4 chimera, read-out: mPPARα, murine receptor activation EC50; for mPPARα %Max: maximal activation vs reference comparator
T1 construct: expressed in transfected cells; host or cells: CV-1 cells
T1 sequence (P23204 239-466 limits assumed): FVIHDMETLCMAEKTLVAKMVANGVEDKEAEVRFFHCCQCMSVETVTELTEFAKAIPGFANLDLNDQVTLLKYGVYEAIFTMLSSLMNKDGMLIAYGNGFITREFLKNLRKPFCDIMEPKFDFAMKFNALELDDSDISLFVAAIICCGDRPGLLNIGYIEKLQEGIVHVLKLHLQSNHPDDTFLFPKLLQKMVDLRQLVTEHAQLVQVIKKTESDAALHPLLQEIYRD
Experimental: The functional potency of selected ligands was evaluated using a transient transfection assay in CV-1 cells. The ligand binding domains for murine PPARα, PPARδ, and PPARγ were fused to the yeast transcription factor GAL4 DNA binding domain as a chimera. CV-1 cells were propagated and transiently transfected with expression vectors for the respective PPAR chimera as previously described. Test compounds were compared to reference comparators that give maximum responses in this assay. Compounds which produced an activation of at 70% or greater, compared to a positive control, were considered full agonists.

murine PPARγ = target: T2, murine PPARγ (Mus musculus, UniProt P37238); assay: PPAR-GAL4 transient transfection transactivation assay (SPAP reporter) in CV-1 cells, PPARγ; assay type: cell-based; conditions: for EC50: CV-1 cells, GAL4 chimera, read-out: mPPARγ, murine receptor activation EC50; for mPPARγ %Max: maximal activation vs reference comparator
T2 construct: expressed in transfected cells; host or cells: CV-1 cells
T2 sequence (P37238 238-503 limits assumed): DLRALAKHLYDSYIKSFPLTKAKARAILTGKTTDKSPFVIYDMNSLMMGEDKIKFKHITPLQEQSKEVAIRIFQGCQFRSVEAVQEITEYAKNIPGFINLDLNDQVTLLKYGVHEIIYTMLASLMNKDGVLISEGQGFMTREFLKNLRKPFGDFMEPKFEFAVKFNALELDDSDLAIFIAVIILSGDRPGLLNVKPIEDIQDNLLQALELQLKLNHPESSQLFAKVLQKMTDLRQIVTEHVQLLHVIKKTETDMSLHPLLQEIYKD
Experimental: (§1) The functional potency of selected ligands was evaluated using a transient transfection assay in CV-1 cells. The ligand binding domains for murine PPARα, PPARδ, and PPARγ were fused to the yeast transcription factor GAL4 DNA binding domain as a chimera. CV-1 cells were propagated and transiently transfected with expression vectors for the respective PPAR chimera as previously described.

[1] = system: diet-induced obese (DIO) AKR/J mouse; assay: Food consumption in diet-induced obese AKR/J mice; assay type: in vivo; conditions: for effect on food consumption (in words): compared to vehicle-treated animals, doses and regimen as in methods
Experimental: In each experiment, BW of each animal was measured and recorded three times weekly throughout the treatment period. Body mass was obtained weekly on days 0, 7, 13, 20, and 27 of treatment. The effects of selective PPARα, δ, and γ agonists on food consumption were also assessed. Food consumption is expressed as total energy consumed (kcal) over a 24-period and as cumulative consumption over the course of the experiment.
The fat content of Research Diets D12331 chow results in pellets that crumbles making it difficult to quantify food consumption thus, Research Diets D12451 chow (4.7 kcal/g (45% kcal from fat, 35% kcal from carbohydrates and 20% kcal from protein)) was used in studies where food consumption was determined as these pellets are more solid. The animals were transitioned two weeks before compound dosing from Research Diets D12331 chow to Research Diets D12451 chow. Previous experiments (data not presented) have shown that animals fed this diet maintain the same BW and fat mass level as observed at the time of transition.
Experiment 1 was designed to study the effects of a selective PPARα agonist and PPARδ agonist as mono and combination therapy. 48 mice were sorted into 6 groups and blocked such that initial BW and body composition were not different between groups. […] Two additional groups of mice were dosed for the first 14 days with either a PPARα agonist or a PPARδ agonist alone. At day 15, the PPARδ agonist was added to the treatment regimen of animals dosed with PPARα, and the PPARα agonist was added to the dosing material of animals previously dosed with PPARδ alone. The sixth group was dosed with both the PPARα and PPARδ agonists for the entire 28-day period. BW and food consumption were assessed 3 times per week and body composition was measured weekly.
In Experiment 2, 32 mice were sorted into 4 groups (n = 8/group) and dosed with vehicle and a selective PPARγ agonist (GW7845, 3 mg/kg) for 28 days. Rimonabant (RIM, 10 or 30 mg/kg, q.d.), a CB1 receptor antagonist, was used as a positive control for weight loss. As in Experiment 1, BW and food consumption were determined 3 times per week and body composition was measured weekly.

murine PPARδ = target: T3, murine PPARδ (Mus musculus, UniProt P35396); assay: PPAR-GAL4 transient transfection transactivation assay (SPAP reporter) in CV-1 cells, PPARδ; assay type: cell-based
T3 construct: expressed in transfected cells; host or cells: CV-1 cells
T3 sequence (P35396 210-438 limits assumed): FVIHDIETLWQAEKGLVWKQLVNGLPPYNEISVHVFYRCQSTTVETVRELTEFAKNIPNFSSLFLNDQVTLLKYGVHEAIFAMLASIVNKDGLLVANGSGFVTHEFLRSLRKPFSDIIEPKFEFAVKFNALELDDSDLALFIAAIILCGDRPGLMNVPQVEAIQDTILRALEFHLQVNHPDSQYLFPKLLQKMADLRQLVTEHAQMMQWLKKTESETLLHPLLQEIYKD
Experimental: as §1

Q: Which EC50 (murine PPARα) does the source give for Cc1cc(SCc2sc(-c3ccc(C(F)(F)F)c(F)c3)nc2C)ccc1OCC(=O)O [GW0742] here?
A: The EC50 was 8.81 µM.

Q: And the “mPPARα %Max” value (murine PPARα)?
A: Its value is 55%.

Q: And the EC50 (murine PPARγ)?
A: The EC50 was 10 µM.

Q: What about the “mPPARγ %Max” value (murine PPARγ) of the same compound?
A: Its value is 67%.

Q: What about the “effect on food consumption (in words)” value [1] of the same compound?
A: Its value is “transient stimulatory effect on food intake from days 12–17”.

Q: And the “effect on food consumption (in words)” value ([1]; listed as PPARδ agonist)?
A: The value was “small but statistically significant increase in feeding”.

Q: Which results are given for COC(=O)c1ccccc1N[C@@H](Cc1ccc(OCCc2nc(-c3ccccc3)oc2C)cc1)C(=O)O [GW7845]?
A: EC50 (murine PPARδ; CV-1 cells, GAL4 chimera, read-out: mPPARδ, murine receptor activation EC50): 10 µM; mPPARδ %Max (murine PPARδ; maximal activation vs reference comparator): 12%; EC50 (murine PPARα): 10.8 µM; mPPARα %Max (murine PPARα): 30%; EC50 (murine PPARγ): 0.0012 µM; mPPARγ %Max (murine PPARγ): 247%; selectivity for PPARγ over the other murine PPAR subtypes (murine PPARγ; murine receptors): > 1000 fold; increase in food consumption ([1]; 3 mg/kg, after only one day): 46%; food consumption elevated ([1]; 3 mg/kg, over the remaining treatment period): more than 20%

Q: How did the EC50 (murine PPARα) turn out when CCCCCCCN(CCc1ccc(SC(C)(C)C(=O)O)cc1)C(=O)Nc1ccc(F)cc1F [GW9578] was run?
A: The EC50 was 0.008 µM and 0.0081 µM.

Q: And the “mPPARα %Max” value (murine PPARα)?
A: The value was 95%.

Q: And the “selectivity for PPARα over PPARγ and PPARδ” value (murine PPARα; murine receptors)?
A: The value was greater than 250 fold.

Q: What about the EC50 (murine PPARγ) of the same compound?
A: The EC50 was 2.82 µM.

Q: And the “mPPARγ %Max” value (murine PPARγ)?
A: The value was 96%.

Q: What about the “effect on food consumption (in words)” value [1] of the same compound?
A: Its value is “significant suppression of food intake”.

Q: What about the “effect on food consumption (in words)” value ([1]; listed as PPARα agonist) of the same compound?
A: The value was “reduced food consumption”.
